Laboratory results reported in publication PMC5289826 (PLoS ONE, 2017).

How the values were obtained:
human skin biopsies [1] = experiment: Dermal total collagen content in ex vivo human skin biopsies (Picrosirius Red); conditions: 10 μM or 100 μM inhibitor topically, 6 days; 100 nM cortisone for 5 days
Experimental: (§1) Ex vivo skin experiments were performed as contract research by Cutech Biotechnology following the Helsinki declaration and who obtained permission as well as informed consent from the patient (Padova, Italy). Human skin from abdominal plastic surgery of a donor was used. Skin samples were cut in pieces of approximately 8 × 3 mm (diameter × thickness) and cultured in an air-liquid interface in a perforated ring of stainless steel in contact with culture medium (modified Williams’ E medium, Sigma Aldrich) up to day 6. The culture medium was renewed on day 0 and day 3. The test compounds were applied topically and renewed daily. The application was performed as follows: skin biopsies were gently cleaned with a cotton pad and 4 μL of 10 μM or 100 μM test compound were applied on top of each piece and covered with a 6 mm (diameter) delivery membrane (CoTran 9728 Controlled Caliper Ethylene Vinyl Acetate Membrane, 3M, St. Paul, MN, USA).
Skin viability was assessed in two skin biopsies after 6 days of treatment using methylthiazolyldiphenyl‐tetrazolium bromide (MTT, Sigma Aldrich) staining. Total dermal collagen in skin sections was semi-quantitatively evaluated by Picrosirius Red histochemical staining (using Picric Acid, Fast Green FCF and Direct Red from Sigma Aldrich) that dyes collagen fibers in purple-red. […] The evaluation was performed by estimating both color intensity and distribution using IMAGE J (NIH) analysis software, allowing to obtain a semi-quantitative evaluation of dermal collagen (collagen score). Two slides of each skin sample were processed by image acquisition and related analysis (i.e. 12 images for each treatment).

[2] = system: T1, recombinant human 11β-HSD2; experiment: 11β-HSD2 enzyme activity in cell lysates (cortisol to cortisone); assay type: biochemical; conditions: 1 μM compound; lysates of HEK-293 cells; 50 nM cortisol
T1 construct: expressed in transfected cells
Experimental: (§2) Human embryonic kidney (HEK-293) cells either stably expressing human 11β-HSD1 and H6PDH (HHH7 clone, [38]) or 11β-HSD2 (AT8 clone, [39]), or transiently expressing human 17β-HSD1 or 17β-HSD2, were cultivated in Dulbecco’s modified Eagle medium (DMEM) containing 4.5 g/L glucose, 10% fetal bovine serum, 100 U/mL penicillin, 0.1 mg/mL streptomycin, 1 × MEM nonessential amino acids, and 10 mM HEPES buffer, pH 7.4. Cells were washed with phosphate-buffered saline (PBS), centrifuged for 4 min at 150 × g, and the cell pellets were snap frozen on dry ice and stored at −80°C until further use.
(§3) Cell lysates were resuspended in TS2 buffer (100 mM NaCl, 1 mM EGTA, 1 mM EDTA, 1 mM MgCl2, 250 mM sucrose, 20 mM Tris-HCl, pH 7.4), followed by sonication at 4°C using a Hielscher UP50H ultrasonic processor (0.3 cycle, 20 amplitude %, 20 impulses; Hielscher Ultrasonics GmbH, Teltow Germany). Cell lysates, reaction mixture, and either vehicle (DMSO) or inhibitor were incubated for 10 min at 37°C in a final volume of 22.2 μL. The solvent concentration was 0.1%. […] 11β-HSD2 activity was measured in the presence of 50 nM cortisol and 500 μM NAD^+. An amount of 50 nCi of radiolabeled tracer substrate was included in the experiments. […] The bands of the corresponding steroids were excised, followed by scintillation counting and calculation of the amount of substrate conversion. Data were obtained from at least three independent measurements. Glycyrrhetinic acid (CTRL 1) was used as positive control for 11β-HSD1 and 11β-HSD2 inhibition, apigenin (CTRL 2) for 17β-HSD1, and compound 22 from Vuorinen et al. [40](CTRL 3) for 17β-HSD2 inhibition.

human 11β-HSD1 = system: T2, human 11β-HSD1; experiment: 11β-HSD1 activity assay in intact HEK-293 cells co-expressing 11β-HSD1 and H6PDH; assay type: cell-based; conditions: 100 nM and 1 μM compound; intact HHH7 cells; 200 nM cortisone; 30 min
T2 construct: expressed in transfected cells
Experimental: HEK-293 cells co-expressing 11β-HSD1 and H6PDH were seeded in poly-L-lysine coated 96 well-plates (30’000 cells/well) and cultivated in DMEM. At 24 h post-seeding, the cells were washed with charcoal-treated serum-free DMEM (cDMEM) and incubated for 3 h in 100 μL cDMEM. Then, the medium was aspirated and replaced by 30 μL cDMEM. […] The reactions were terminated after 30 min of incubation, followed by analysis of substrate conversion as described above. Data were obtained from at least three independent measurements.

[3] = target: T3, recombinant human 11β-HSD1 (Homo sapiens, UniProt P28845); experiment: 11β-HSD1 enzyme activity in cell lysates (cortisone to cortisol, radiolabeled tracer, TLC); assay type: biochemical; conditions: for 11β-HSD1 Residual activity, % of control at 100 nM: 100 nM compound; for 11β-HSD1 Residual activity, % of control at 100 nM / 11β-HSD1 Residual activity, % of control at 1 μM: lysates of HEK-293 cells, 200 nM cortisone, mean of three experiments; for 11β-HSD1 Residual activity, % of control at 1 μM: 1 μM compound
T3 construct: expressed in transfected cells
Experimental: as §2, §3

endogenous 11β-HSD1 = target: T4, endogenous 11β-HSD1 (Homo sapiens, UniProt P28845); experiment: 11β-HSD1-dependent cortisol formation in intact primary human keratinocytes; assay type: cell-based; conditions: for inhibition of cortisol formation (in words): 1 μM compound, primary human keratinocytes, 1 μM cortisone, 24 h; for IC50: read-out: estimated IC50 of cortisol formation
T4 construct: intact primary human keratinocytes expressing endogenous 11β-HSD1; host or cells: primary human epidermal keratinocytes
Experimental: Human epidermal keratinocytes obtained from CELLnTEC advanced Cell Systems (Berne, Switzerland) were maintained in CnT-Prime medium (http://cellntec.com/products/cnt-pr/#datasheet) at 37°C. Cells were subcultivated before reaching confluence. After reaching 90% of confluence, the keratinocytes were washed twice with PBS prior to change to cortisol-free CnT-Prime medium (custom-made by CELLnTEC). […] Compound CAS 1009373-58-3 (CTRL 4, Merck Millipore, Darmstadt, Germany) was used as positive control. After 24 h cell culture supernatants were collected and the amount of cortisol produced was measured on a Mulstiskan Ascent plate reader (MTX Lab Systems, Bradenton, FL) using the Cortisol Parameter Assay Kit (R&D Systems, Minneapolis, MN) following the instructions by the manufacturer. Cell viability was assessed using PrestoBlue® Cell Viability Reagent (Invitrogen, Carlsbad, CA) according to the manufacturer’s instructions.

human 17β-HSD1 = system: T5, human 17β-HSD1; experiment: 17β-HSD1 enzyme activity in cell lysates (estrone to estradiol); assay type: biochemical; conditions: 1 μM, 200 nM estrone
T5 construct: expressed in transfected cells; host or cells: HEK-293 (transient)
Experimental: as §2, §3

human 17β-HSD2 = system: T6, human 17β-HSD2; experiment: 17β-HSD2 enzyme activity in cell lysates (estradiol to estrone); assay type: biochemical; conditions: 1 μM, 200 nM estradiol
T6 construct: expressed in transfected cells; host or cells: HEK-293 (transient)
Experimental: as §2, §3

human skin biopsies [4] = experiment: Dermal collagen III content in UV exposed ex vivo human skin biopsies (anti-collagen III antibody)
Experimental: as §1
Skin biopsies were subjected to UV irradiation using a BIO-SUN system (Vilber Lourmat, Eberhardzell, Germany). The system had the following specifications: Lamp wave length: UVB 312 nm (range 280–320 nm) and UVA 365 nm (range 355–375 nm), range of measure (irradiance): accuracy and linearity ± 0.2%, range of programmed energy: 0.1 to 99.99 J/cm^2, intensity: UVA (365 nm) 5 mW/cm^2, UVB (312 nm) 3 mW/cm^2, UVA + UVB: 5.6 + 3.2 mW/cm^2, respectively. The selected UV irradiation intensities were 40% and 80% of the Biological Effective Dose (BED) of 7.5 J/cm^2 UV daylight as described by Del Bino et al.. UV 40% BED = 3.0 J/cm^2 (= 0.1 J/cm^2 UVB + 2.9 J/cm^2 UVA); UV 80% = 6.0 J/cm^2 (= 0.2 J/cm^2 UVB + 5.8 J/cm^2 UVA).
Furthermore, in a preliminary set of experiments, skin biopsies were UV irradiated at 3.0 J/cm^2 and 6.0 J/cm^2 and treated topically with 4 μL of 10 μM or 100 μM of the respective inhibitor, followed by determination of collagen III content using a mouse monoclonal anti-collagen III antibody (Sigma Aldrich).

[5] = 100 μM, 6.0 J/cm^2 UV irradiation

T3 sequence (P28845 whole entry): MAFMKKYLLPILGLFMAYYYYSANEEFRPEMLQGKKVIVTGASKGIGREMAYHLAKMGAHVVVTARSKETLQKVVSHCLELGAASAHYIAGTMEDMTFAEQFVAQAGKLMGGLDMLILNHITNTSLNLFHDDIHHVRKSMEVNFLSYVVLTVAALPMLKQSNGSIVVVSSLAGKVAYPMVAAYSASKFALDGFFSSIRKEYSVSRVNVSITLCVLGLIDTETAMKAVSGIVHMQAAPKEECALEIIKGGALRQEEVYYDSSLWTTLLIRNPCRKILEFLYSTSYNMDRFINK
T4 sequence (P28845 whole entry): as above

IC50 [3]	11β-HSD1 Residual activity, % of control at 100 nM [3]	11β-HSD1 Residual activity, % of control at 1 μM [3]	inhibition of cortisol formation (in words) (endogenous 11β-HSD1)	IC50 (endogenous 11β-HSD1)	melting point	Compound	effect on cortisone-induced collagen decrease (in words) (human skin biopsies [1])	11β-HSD2 Residual activity, % of control at 1 μM [2]	inhibition of 11β-HSD1 in intact cells (in words) (human 11β-HSD1)	inhibition of 17β-HSD1 (in words) (human 17β-HSD1)	inhibition of 17β-HSD2 (in words) (human 17β-HSD2)	collagen III vs UV treated vehicle control (in words) (human skin biopsies [4]; 10 μM, UV irradiated biopsies)	collagen III vs UV treated vehicle control (in words) (human skin biopsies [4]; [5])	collagen III vs UV treated vehicle control (in words) (human skin biopsies [4]; 100 μM, 3.0 J/cm^2 UV irradiation, p<0.01)	effect on UV-mediated decrease in collagen III levels (in words) (human skin biopsies [4]; topical 10 μM or 100 μM, 3.0 and 6.0 J/cm^2 UV, preliminary)
42.2 nM	36 % of control	5 % of control	almost completely inhibited	≤ 100 nM		Cc1ccc(-c2cccc(C(=O)N3CCC(C)CC3)c2)cn1 [2b, (4-Methylpiperidin-1-yl)(3-(6-methylpyridin-3-yl)phenyl)methanone]	prevented the cortisone-induced collagen decrease	> 90 % of control	almost completely inhibited	selective	selective	did not result in significant changes	significantly higher collagen III levels		
34.5 nM	19 % of control	1 % of control	almost completely inhibited	≤ 100 nM	106 to 108 °C	Cc1ccc(-c2cccc(C(=O)N3CCCCCC3)c2)cc1F [3e, Azepan-1-yl(3’-fluoro-4’-methyl-[1,1’-biphenyl]-3-yl)methanone]	prevented the cortisone-induced collagen decrease	> 90 % of control	almost completely inhibited	selective	selective		significantly higher collagen III	significantly higher collagen III	prevented the decrease in collagen III levels
40.4 nM	38 % of control	5 % of control	almost completely inhibited	≤ 100 nM		CC1CCN(C(=O)c2cccc(-c3ccc(O)cc3)c2)CC1 [7b, (4’-Hydroxy-[1,1’-biphenyl]-3-yl)(4-methylpiperidin-1-yl)methanone]		> 90 % of control	almost completely inhibited	selective	selective				
23.4 nM	21 % of control		almost completely inhibited	≤ 100 nM		O=C(c1cccc(-c2ccccc2)c1)N1CCCCCC1 [12e, [1,1’-Biphenyl]-3-yl(azepan-1-yl)methanone]	prevented the cortisone-induced collagen decrease	> 90 % of control	almost completely inhibited	selective	selective	did not result in significant changes	significantly higher collagen III levels		
